Columns and labels:
oil and gas biofilm = assay: Biofilm percent reductions (Example 5)
[1] = Membrane compatibility, simulated exposure soak, clean water flux and salt rejection (Example 4); details: Koch HRX, PFA 300 ppm, 77 F
Procedure: The effects of PFA on reverse osmosis members which contain a polyamide structure in comparison with known control chemicals were tested. Three different membranes were tested including Koch HRX, Hydranautics CPA5 and Hydranautics ESPA2+. Membranes were soaked in duplicate, in chemistries according to Table 4.
Membranes were then conditioned in Ultrasil 110 at a pH of 11 for 90 minutes at 50° C., followed by a rinse in DI water.
Each of the chemistries, with the exception of PFA was refreshed daily. PFA was refreshed hourly. After the simulated exposure the membranes are rinsed with DI water and placed on the Flat Sheet Membrane skid (Model M20). The membranes were rinsed with DI water for 24 hours at standard UF pressure and temperature. Once 24 hours was completed the membranes were subjected to alkaline conditioning step until solution pH is 11. 15.14 grams of NaCl was added to the recirculating water (2000 ppm NaCl) and the system was allowed to continue circulating. The conductivity of each permeate tube and feed was then measured and recorded and shown as percent rejection. The percent rejection was determined by (conductivity of the feed−conductivity of the permeate)/(conductivity of the feed).

Row | SMILES | Biofilm percent reductions, ATP (oil and gas biofilm; 250 ppm) | Biofilm percent reductions, Total biofilm (oil and gas biofilm; 250 ppm) | inhibition at 250 ppm (oil and gas biofilm; read-out: Biofilm percent reductions, Viable biofilm) | Water Flux (LMH) PFA 1 YR ([1]; simulated 1 year, 78 hr soak) | Water Flux (LMH) PFA 3 YR ([1]; simulated 3 years, 234 hr soak) | Biofilm percent reductions, ATP (oil and gas biofilm; 75 ppm active) | Biofilm percent reductions, Total biofilm (oil and gas biofilm; 75 ppm active) | Biofilm percent reductions, Viable biofilm (oil and gas biofilm; 75 ppm active)
1 | O=CCCCC=O [Glutaraldehyde, reference compound] | 94% | 58% | 81% | – | – | – | – | –
2 | O=COO [PFA, peroxyformic acid] | – | – | – | 65.40 LMH | 75.84 LMH | 99% | 85% | 96%
